Legend:
[1] = system: UWB1.289 human ovarian cancer cell line (mutant BRCA1); experiment: MTT cytostatic-cytotoxic activity, UWB1.289; type: cell-based; settings: for GI50 / IC50: Homo sapiens; for GI50: UWB1289, 48 h; for GI50 / TGI: UWB1.289, 48 h treatment; for IC50: UWB1289, UWB1.289, 48 h treatment, kills 50% of the cells
Procedure: Also, UWB1.289 cells have mutated the p53 tumor suppressor gene and positive Wilms' tumor protein (WT) expression, have no functional BRCA1 gene and are positive for the expression of cytokeratin 7 (CK-7), calretinin and Wilms' tumor protein (WT). Finally they are sensitive to ionizing radiation.
(§1) All cancer cell lines are stored in a liquid nitrogen tank in 2.5 ml cryovials (Corning-Costar, Cambridge, Mass.). DMSO (dimethylsulfoxide) act as a cryoprotectant and is added to prevent the formation of ice crystals which may lyse the cells. The Cells were grown as monolayer cultures in T-75 flasks (Corning-Costar, Cambridge, Mass.) and maintained at 37° C. in 5% CO2 incubator & 100% relative humidity. The cultures medium used are McCoy's 5a Medium, supplemented with 10% fetal bovine serum (FBS, Gibco) and 1% antibiotics (100 IU/ml penicillin/100 µg/ml streptomycin), sterilized by filtration (Corning-Costar filter, diameter 0.2 μm, RPMI-1640 and 50% RPMI-1640 (Catalog No 30-2001) plus 50% Mammary Epithelial Growth Medium (MEGM), supplemented with 10% fetal bovine serum (FBS, Gibco) and 1% antibiotics (100 IU/ml penicillin/100 μg/ml streptomycin). The passage is performed every 3-4 to days as follows: Cells are washed with sterile PBS (Phosphate buffered saline): 8 g/l NaCl, 0,2 g/l KCl, 1,15 g/l Na2HPO4καl 0,2 g/l KH2PO4. pH:7,4), add 2-3 ml 0.05% trypsin (Gibco 1:250) and 0.02% EDTA to cover the monolayer and incubate the flask at 3TC for 5-10 minutes. Trypsin-EDTA, is used mainly to detach the cells from the flask and prepare a single cell suspension. Finally, the number of cells can be determined by direct counting using a Neubauer chamber and cell viability is determined by staining the cells with trypan blue.
(§2) In the experimental study the in vitro effect of the compound type (I) was evaluated against ovarian cancer cell lines UWB1.289, UWB1.289+BRCA1 Kai SKOV-3.The cells were plated in 96-well plate (MTP) at a density of 1×10^4cells/m1 per well and maintained for 72 h at 3TC in a 5% CO2 incubator and grown as monolayers. The selection of the initial number of cells was made according to the rate of proliferation of the cell line, in order the cells throughout the experiment are in an exponential (log) growth phase. After 24 hours, cells were treated with 1-100 μmol/l of the tested compounds for 48 h. Experiments were carried out using triplicate wells. The viability of cultured cells was estimated by an (3-(4,5-imethylthiazol-2-yl)-2,5-diphenyltetrazolium bromide (MTT) metabolic assay as described previously (Finlay G J, Wilson W R and Baguley B C: Comparison of in vitro activity of cytotoxic drugs towards human carcinoma and leukaemia cell lines. Eur J Cancer Clin Oncol 22: 655-662, 1986; Alley M C, Scudiero D A, Monks A, Hursey M L, Czerwinski M J, Fine D L, et al. Feasibility of drug screening with panels of human tumor cell lines using a microculture tetrazolium assay. Cancer Res 1988; 48:589-601). MTT (Sigma, St Louis, Mo., USA) was dissolved in PBS in a concentration of 5 mg/ml, filter sterilized, and stored at 4° C. MTT (50 μl of stock solution) was added to each culture and incubated for 3 h at 3TC to allow metabolization. Formazan crystals were solubilized by DMSO (100 μl). Absorbance of the converted dye was measured at a wavelength of 540nm on ELISA reader (BioTek, Winooski, Vt., USA).
(§3) GI50: The mean concentration that causes 50% inhibition of cell growth (Growth Inhibition 50%). The calculation of the value is based on the formula: (Tt72x)−(Ct24)/(Ct72)-(Ct24)×100=50
(§4) TGI: The mean concentration that causes 100% inhibition of cell growth (Total Growth Inhibition). The value is calculated according to the formula: (Tt72x)−(Ct24)/(Ct72)−(Ct24)×100=0
(§5) IC50: The mean concentration that kills 50% of the cells (Inhibition Concentration 50%). The value is calculated according to the formula: (Tt72x)−(Ct24)/(Ct24)×100=[…]

C57BI/6 mice = experiment: in vivo; settings: i.p., acute toxicity
Procedure: (§6) The acute toxicity of the compounds was assessed from lethality by testing different concentrations, starting at 100mg/kg. […] For intraperitoneal (i.p.) treatment, stock solutions of the tested compounds were prepared immediately before use. They were suspended in corn oil in the desired concentration following initial dissolution in 10% dimethylsulfoxide (DMSO). C57BI/6 male and female were used for toxicity studies. Mice were kept under conditions of constant temperature and humidity in sterile cages with water and food.

in vivo = settings: both sexes, mouse, in vivo, ip; C57BI/6 mice, acute toxicity
Procedure: as §6

[2] = system: SKOV-3 human ovarian cancer cell line; experiment: MTT cytostatic-cytotoxic activity, SKOV-3; type: cell-based; settings: for GI50 / IC50: Homo sapiens, SK-OV-3, SKOV-3, 48 h treatment; for IC50: kills 50% of the cells; for TGI: SKOV-3, 48 h treatment
Procedure: SKOV-3 (SKOV-3) (ATCC HTB 77) and OVCAR-3 (ATCC® HTB-161™)
Human ovarian adenocarcinoma cells, which are grown easily in monolayer culture with epithelial-like morphology. SKOV-3 are resistant to tumor necrosis factor (TNF) and to other cytotoxic drugs such as cisplatin, and adriamycin, while OVCAR-3 are resistant to adriamycin, cisplatin and melphalan. These cell lines express androgens, estrogens and progesterone receptors. When SKOV-3 or OVCAR-3 cells are subcutaneously implanted in nude mice, SCID mice, a moderately differentiated tumor develops, and the resulting model resembles primary ovarian adenocarcinoma in humans.
as §1, §2, §3
TGI: The mean concentration that causes 100% inhibition of cell growth (Total Growth Inhibition). […]

[3] = system: PC-3 human hormone-resistant prostate cancer cell line; experiment: MTT cytostatic-cytotoxic activity, PC-3; type: cell-based; settings: PC-3, 48 h treatment; for GI50 / IC50: Homo sapiens; for IC50: kills 50% of the cells
[4] = system: T-47D human breast cancer cell line; experiment: MTT cytostatic-cytotoxic activity, T-47D; type: cell-based; settings: 48 h treatment; for GI50 / IC50: Homo sapiens, T47D; for GI50: 48 h; for IC50: kills 50% of the cells
[5] = system: UWB1.289 + BRCA1 human ovarian cancer cell line; experiment: MTT cytostatic-cytotoxic activity, UWB1.289+BRCA1; type: cell-based; settings: for GI50 / IC50: Homo sapiens, UWB1289, UWB1.289+BRCA1, 48 h treatment; for IC50: kills 50% of the cells; for TGI: UWB1.289+BRCA1, 48 h treatment
Procedure: Human ovarian adenocarcinoma cells, derived from UBWB1,289, in which the presence of the BRCA1 gene has been restored. […] They are not susceptible to ionizing radiation and radioimmune chemical agents (e.g., alkylating agents). Also, UWB1.289 cells have mutated the p53 tumor suppressor gene, and are positive for the expression of cytokeratin 7 (CK-7), calretinin and Wilms' tumor protein (WT).
as §1, §2, §3, §4, §5

Compound | GI50 [1] | IC50 [1] | TGI [1] | LD10 (C57BI/6 mice) | LD50 (in vivo) | GI50 [2] | IC50 [2] | TGI [2] | GI50 [3] | IC50 [3] | TGI [3] | TGI [4] | GI50 [4] | IC50 [4] | GI50 [5] | IC50 [5] | TGI [5] | LD50 (C57BI/6 mice)
COc1cc(Cc2nnc3sc(/C=C/c4ccc(F)cc4)nn23)c(S(=O)(=O)N(C)C)cc1OC [TS25, 3-[2-(N,N-dimethylsulfamoyl)-4,5-dimethoxybenzyl]-6-(E)-4-fluorostyryl-1,2,4-triazolo[3,4-b]-1,3,4-thiazole] | 2 µM | 60 µM | 4 µM | >500 mg/kg | 345 mg/kg | 18 µM | 80 µM | 52 µM | 8 µM | 69 µM | 24 µM | 34 µM | 12 µM | 76 µM | 5 µM | 36 µM | 12 µM | 
COc1cc(Cc2nnc3sc(/C=C/c4ccc(Cl)cc4)nn23)c(S(=O)(=O)N(C)C)cc1OC [TS26, 3-[2-(N,N-dimethylsulfamoyl)-4,5-dimethoxybenzyl]-6-(E)-4-chlorostyryl-1,2,4-triazolo[3,4-b]-1,3,4-thiazole] | 8 µM | 72 µM | 21 µM | >500 mg/kg | 365 mg/kg | 38 µM | > 100 µM | 72 µM | 19 µM | 86 µM | 47 µM | >100 µM | 78 µM | > 100 µM | 11 µM | 54 µM | 37 µM | 
COc1ccc(Cc2nn3c(Cc4cc(OC)c(OC)cc4S(=O)(=O)N(C)C)nnc3s2)cc1 [TS50, 3-[2-(N,N-dimethylsulfamoyl)-4,5-dimethoxybenzyl]-6-(4-methoxybenzyl)-1,2,4-triazolo[3,4-b]-1,3,4-thiazole] | 30 µM | > 100 µM | >100 µM | >500 mg/kg | > 500 mg/kg | 6 µM | > 100 µM | >100 µM | 44 µM | > 100 µM | >100 µM | >100 µM | 28 µM | > 100 µM | 16 µM | > 100 µM | >100 µM | >500 mg/kg
COc1cc(Cc2nnc3sc(-c4ccccc4N)nn23)c(S(=O)(=O)N(C)C)cc1OC [TS57, 3-[2-(N,N-dimethylosulfamoyl)-4,5-dimethoxybenzyl]-6-(2-aminophenyl)-1,2,4-triazolo[3,4-b]-1,3,4-thiazole] | > 100 µM | > 100 µM | >100 µM | >500 mg/kg | > 500 mg/kg | > 100 µM | > 100 µM | >100 µM | > 100 µM | > 100 µM | >100 µM | >100 µM | > 100 µM | > 100 µM | 85 µM | > 100 µM | >100 µM | >500 mg/kg
COc1cc(Cc2nnc3sc(Cc4ccccc4)nn23)c(S(=O)(=O)N(C)C)cc1OC [TS62, 3-[2-(N,N-dimethylsulfamoyl)-4,5-dimethoxybenzyl]-6-benzyl-1,2,4-triazolo[3,4-b]-1,3,4-thiazole] | 13 µM | > 100 µM | >100 µM | >500 mg/kg | 480 mg/kg | 12 µM | > 100 µM | 56 µM | 27 µM | > 100 µM | >100 µM | >100 µM | 24 µM | > 100 µM | 8 µM | > 100 µM | 64 µM | 
COc1cc(Cc2nnc3sc(-c4ccc(Cl)cc4)nn23)c(S(=O)(=O)N(C)C)cc1OC [TS63, 3-[2-(N,N-dimethylsulfamoyl)-4,5-dimethoxybenzyl]-6-(4-chlorophenyl)-1,2,4-triazolo[3,4-b]-1,3,4-thiazole] | 30 µM | > 100 µM | 50 µM | >500 mg/kg | 430 mg/kg | 8 µM | > 100 µM | 38 µM | 20 µM | > 100 µM | 45 µM | 55 µM | 27 µM | > 100 µM | 8 µM | > 100 µM | 64 µM | 
COc1cc(Cc2nnc3sc(-c4ccc(N)cc4)nn23)c(S(=O)(=O)N(C)C)cc1OC [TS71, 3-[2-(N,N-dimethylsulfamoyl)-4,5-dimethoxybenzyl]-6-(4-aminophenyl)-1,2,4-triazolo[3,4-b]-1,3,4-thiazole] | > 100 µM | > 100 µM | >100 µM | >500 mg/kg | > 500 mg/kg | > 100 µM | > 100 µM | >100 µM | > 100 µM | > 100 µM | >100 µM | >100 µM | > 100 µM | > 100 µM | 90 µM | > 100 µM | >100 µM | >500 mg/kg

— US10513529B2, “1,2,4-triazolo-[3,4-b]-1,3,4-thiadiazole derivatives” (GALENICA S.A., priority 2016, dated 2019)
